Here are results for 32 molecules from patent publication US20100105651A1, “ANTAGONISTS OF SNS SODIUM CHANNELS” (priority 2005, published 2010).

The test concerns the target T1, human NaV1.8 (hNaV1.8) ion channel (Homo sapiens, UniProt Q9Y5Y9).
T1 construct: expressed in transfected cells
In words: Inhibition of Human NaV1.8 stably expressed in SH-SY-5Y cells (membrane potential dye fluorescence assay). In kind it is cell-based. Particulars: SH-SY-5Y cells stably expressing hNaV1.8; FLIPR membrane potential dye; 10 μM pyrethroid, 250 nM TTX; test range 100 μM-0.05 μM; read-out: hNav1.8 IC50. How it is done:
Inhibition of Human NaV1.8 stably expressed in SH-SY-5Y cells
A SH-SY-5Y neuroblastoma cell line stably expressing the human NaV1.8 (hNaV1.8) ion channel was constructed. This cell line has been used to develop a medium to high throughput assay for determining the ability of test compounds to inhibit membrane depolarisation mediated via the hNaV1.8 channel.
SH-SY-5Y hNaV1.8 are grown in adherent monolayer culture using 50:50 Ham's F-12/EMEM tissue culture medium supplemented with 15% (v/v) foetal bovine serum; 2 mM L-glutamine, 1% NEAA and 600 μg·ml^−1 Geneticin sulphate. Cells are removed from the tissue culture flask using trypsin/EDTA and re-plated into black walled, clear bottom 96-well assay plates at 50,000 cells·well^−1 24 hours prior to assay.
On the day of assay the cell assay plates are washed to remove cell culture medium using a sodium free assay buffer (145 mM tetramethyl ammonium chloride; 2 mM calcium chloride; 0.8 mM magnesium chloride hexahydrate; 10 mM HEPES; 10 mM glucose; 5 mM potassium chloride, pH 7.4). Fluorescent membrane potential dye solution (FLIPR™ membrane potential dye, Molecular Devices Corporation), containing 10 μM of a pyrethroid to prevent channel inactivation and 250 nM tetrodotoxin (TTX) to reduce interference from TTX-sensitive sodium channels present in the cell line. Test compound, initially dissolved in dimethyl sulfoxide but further diluted in sodium free buffer, is added to achieve the final test concentration range of 100 μM-0.05 μM.
Cell plates are incubated for 30 minutes at room temperature to allow equilibration of dye and test compound. Plates are then transferred to a fluorescence plate reader for fluorescence measurement using an excitation wavelength of 530 nm whilst measuring fluorescence emission at 565 nm. […] Membrane depolarisation is registered by an increase in fluorescence emission at 565 nm.
The change in fluorescence seen in each test well upon the addition of sodium containing buffer is calculated relative to the baseline fluorescence for that well. This figure is then used for calculating the IC50 for each test compound.

Molecules are shown by their SMILES.

T1 sequence (Q9Y5Y9 whole entry): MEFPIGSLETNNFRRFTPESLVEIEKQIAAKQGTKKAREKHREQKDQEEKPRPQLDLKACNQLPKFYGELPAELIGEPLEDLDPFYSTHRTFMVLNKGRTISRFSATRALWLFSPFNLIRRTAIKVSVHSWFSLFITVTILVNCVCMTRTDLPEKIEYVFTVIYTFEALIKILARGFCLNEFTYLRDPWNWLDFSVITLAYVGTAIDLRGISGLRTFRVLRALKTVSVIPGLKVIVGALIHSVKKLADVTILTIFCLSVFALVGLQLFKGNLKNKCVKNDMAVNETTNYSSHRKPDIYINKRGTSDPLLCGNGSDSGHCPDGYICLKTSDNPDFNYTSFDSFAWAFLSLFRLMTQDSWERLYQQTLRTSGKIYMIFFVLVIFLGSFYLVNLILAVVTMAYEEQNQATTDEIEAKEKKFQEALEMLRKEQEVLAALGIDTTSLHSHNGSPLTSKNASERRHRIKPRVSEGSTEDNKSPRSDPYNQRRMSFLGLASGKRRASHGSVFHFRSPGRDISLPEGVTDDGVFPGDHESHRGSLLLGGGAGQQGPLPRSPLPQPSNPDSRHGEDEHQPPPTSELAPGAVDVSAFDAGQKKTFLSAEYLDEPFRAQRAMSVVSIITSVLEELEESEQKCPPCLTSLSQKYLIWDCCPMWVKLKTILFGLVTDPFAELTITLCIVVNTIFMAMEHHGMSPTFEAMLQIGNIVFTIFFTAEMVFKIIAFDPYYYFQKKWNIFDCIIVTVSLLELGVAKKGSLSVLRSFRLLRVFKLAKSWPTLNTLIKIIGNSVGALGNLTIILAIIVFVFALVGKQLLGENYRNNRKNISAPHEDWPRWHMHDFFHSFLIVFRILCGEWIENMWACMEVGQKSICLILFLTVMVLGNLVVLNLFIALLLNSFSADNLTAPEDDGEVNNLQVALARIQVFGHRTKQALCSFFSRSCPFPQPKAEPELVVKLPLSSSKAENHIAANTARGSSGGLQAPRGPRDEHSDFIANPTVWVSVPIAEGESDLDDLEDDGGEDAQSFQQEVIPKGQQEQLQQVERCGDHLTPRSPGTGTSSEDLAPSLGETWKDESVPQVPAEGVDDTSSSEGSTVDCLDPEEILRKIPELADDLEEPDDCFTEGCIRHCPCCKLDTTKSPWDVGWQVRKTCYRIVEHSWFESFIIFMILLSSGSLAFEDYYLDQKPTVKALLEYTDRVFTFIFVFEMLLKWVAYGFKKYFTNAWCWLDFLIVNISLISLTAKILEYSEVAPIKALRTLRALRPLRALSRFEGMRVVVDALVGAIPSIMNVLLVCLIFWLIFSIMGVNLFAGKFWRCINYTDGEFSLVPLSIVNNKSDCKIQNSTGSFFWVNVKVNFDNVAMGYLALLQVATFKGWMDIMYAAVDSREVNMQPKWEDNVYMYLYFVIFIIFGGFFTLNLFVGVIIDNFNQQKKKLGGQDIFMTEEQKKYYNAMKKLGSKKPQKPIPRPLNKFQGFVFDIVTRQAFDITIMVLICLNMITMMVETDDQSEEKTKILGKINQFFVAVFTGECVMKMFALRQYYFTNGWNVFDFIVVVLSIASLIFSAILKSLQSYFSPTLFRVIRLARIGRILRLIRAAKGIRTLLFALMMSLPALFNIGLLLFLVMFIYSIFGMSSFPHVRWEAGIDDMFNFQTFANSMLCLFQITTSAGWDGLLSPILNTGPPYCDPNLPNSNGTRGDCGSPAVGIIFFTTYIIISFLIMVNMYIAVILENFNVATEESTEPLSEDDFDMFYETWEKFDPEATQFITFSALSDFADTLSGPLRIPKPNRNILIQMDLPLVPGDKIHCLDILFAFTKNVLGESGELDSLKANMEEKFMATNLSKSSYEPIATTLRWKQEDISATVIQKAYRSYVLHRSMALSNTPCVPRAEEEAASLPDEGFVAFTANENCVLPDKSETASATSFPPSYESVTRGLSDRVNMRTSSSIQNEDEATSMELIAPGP

For the molecule `O=C(Nc1ccc(Oc2ccccc2)cc1)N1CC(NC2CCc3ccccc32)C1` (centres unmarked) [Example 30, 3-(Indan-1-ylamino)-azetidine-1-carboxylic acid (4-phenoxy-phenyl)-amide], the IC50 worked out at 260 nM. Then `O=C(c1ccccc1)c1ccc(NC(=O)N2CC(NC3CCc4cc(F)ccc43)C2)cc1` (centres unmarked) [Example 31, 3-(5-Fluoro-indan-1-ylamino)-azetidine-1-carboxylic acid (4-benzoyl-phenyl)-amide], with 7250 nM. Then `O=C(Nc1ccc(C(F)(F)F)cc1)N1CC(NC2CCc3ccccc3C2)C1` (centres unmarked) [Example 32, 3-(1,2,3,4-Tetrahydro-naphthalen-2-ylamino)-azetidine-1-carboxylic acid (4-trifluoromethyl-phenyl)-amide], with 450 nM. `O=C(Nc1ccc(C(F)(F)F)cc1)N1CC(NC2CCc3cc(O)ccc32)C1` (centres unmarked) [Example 33, 3-(5-Hydroxy-indan-1-ylamino)-azetidine-1-carboxylic acid (4-trifluoromethyl-phenyl)-amide]: the IC50 stood at 11500 nM.

As for `O=C(Nc1ccc(Oc2ccccc2)cc1)N1CC(NC2CCc3ccccc3C2)C1` (centres unmarked) [Example 34, 3-(1,2,3,4-Tetrahydro-naphthalen-2-ylamino)-azetidine-1-carboxylic acid (4-phenoxy-phenyl)-amide], the IC50 was found to be 100 nM. Next, `O=C(Nc1ccc(C(F)(F)F)cc1)N1CC(NC2CCc3cc(F)ccc3C2)C1` (centres unmarked) [Example 35, 3-(6-Fluoro-1,2,3,4-tetrahydro-naphthalen-2-ylamino)-azetidine-1-carboxylic acid (4-trifluoromethyl-phenyl)-amide]: 1310 nM; `O=C(Nc1ccc(C(F)(F)F)cc1)N1CC(NC2CCCc3ccccc32)C1` (centres unmarked) [Example 36, 3-(1,2,3,4-Tetrahydro-naphthalen-1-ylamino)-azetidine-1-carboxylic acid (4-trifluoromethyl-phenyl)-amide]: 2770 nM; `CN(C1CN(C(=O)Nc2ccc(Oc3ccc(F)cc3)cc2)C1)C1CCc2cc(F)ccc21` (centres unmarked) [Example 37, 3-[(5-Fluoro-indan-1-yl)-methyl-amino]-azetidine-1-carboxylic acid [4-(4-fluoro-phenoxy)-phenyl]-amide]: 420 nM. Next, `CN(C1CN(C(=O)Nc2ccc(Oc3ccccc3)cc2)C1)C1CCc2cc(F)ccc21` (centres unmarked) [Example 38, 3-[(5-Fluoro-indan-1-yl)-methyl-amino]-azetidine-1-carboxylic acid (4-phenoxy-phenyl)-amide]: 560 nM; `CN(C1CN(C(=O)Nc2ccc(C(F)(F)F)cc2)C1)C1CCc2cc(F)ccc21` (centres unmarked) [Example 39, 3[(5-Fluoro-indan-1-yl)-methyl-amino]-azetidine-1-carboxylic acid (4-trifluoromethyl-phenyl)-amide]: 2020 nM; `CN(C1CN(C(=O)Nc2cccc(C(F)(F)F)c2)C1)C1CCc2cc(F)ccc21` (centres unmarked) [Example 40, 3[(5-Fluoro-indan-1-yl)-methyl-amino]-azetidine-1-carboxylic acid (3-trifluoromethyl-phenyl)-amide]: 2300 nM. Next, `CC1(NC2CCc3cc(F)ccc32)CN(C(=O)Nc2ccc(Oc3ccc(F)cc3)cc2)C1` (centres unmarked) [Example 41, 3-(5-Fluoro-indan-1-ylamino)-3-methyl-azetidine-1-carboxylic acid [4-(4-fluoro-phenoxy)-phenyl]-amide]: 560 nM. In the case of `CC1(NC2CCc3ccccc3C2)CN(C(=O)Nc2ccc(C(F)(F)F)cc2)C1` (centres unmarked) [Example 42, 3-Methyl-3-(1,2,3,4-tetrahydro-naphthalen-2-ylamino)-azetidine-1-carboxylic acid (4-trifluoromethyl-phenyl)-amide], the IC50 came out at 690 nM.

Consider `O=C(c1ccc(Oc2ccc(F)cc2)cc1)N1CC(NC2CCc3cc(F)ccc32)C1` (centres unmarked) [Example 43, [3-(5-Fluoro-indan-1-ylamino)-azetidin-1-yl]-[4-(4-fluoro-phenoxy)-phenyl]-methanone], for which the IC50 was determined as 240 nM. Then `CC(NC1CN(C(=O)c2ccc(Oc3ccccc3)cc2)C1)c1ccccc1` (centres unmarked) [Example 44, (4-Phenoxy-phenyl)-[3-(1-phenyl-ethylamino)-azetidin-1-yl]-methanone], with 730 nM; and `O=C(Cc1ccc(Oc2ccccc2)cc1)N1CC(NC2Cc3ccccc3C2)C1` [Example 45, 1-[3-(Indan-2-ylamino)-azetidin-1-yl]-2-(4-phenoxy-phenyl)-ethanone], with 650 nM; and `CC(NC1CN(C(=O)Cc2ccc(Oc3ccccc3)cc2)C1)c1ccccc1` (centres unmarked) [Example 46, 2-(4-Phenoxy-phenyl)-1-[3-(1-phenyl-ethylamino)-azetidin-1-yl]-ethanone], with 1070 nM. Next, `O=C(Cc1ccc(Oc2ccccc2)cc1)N1CC(NC2CCc3cc(F)ccc32)C1` (centres unmarked) [Example 47, 1-[3-(5-Fluoro-indan-1-ylamino)-azetidin-1-yl]-2-(4-phenoxy-phenyl)-ethanone]: 1660 nM. Take `O=C(Cc1ccc(Oc2ccc(F)cc2)cc1)N1CC(NC2CCc3cc(F)ccc32)C1` (centres unmarked) [Example 48, 1-[3-(5-Fluoro-indan-1-ylamino)-azetidin-1-yl]-2-[4-(4-fluoro-phenoxy)-phenyl]-ethanone]: the IC50 turned out to be 690 nM.

In the case of `O=C(Cc1ccc(Oc2ccc(F)cc2)cc1)N1CC(NC2Cc3ccccc3C2)C1` [Example 49, 2-[4-(4-Fluoro-phenoxy)-phenyl]-1-[3-(indan-2-ylamino)-azetidin-1-yl]-ethanone], the half-maximal inhibitory concentration (IC50) stood at 430 nM. As for `O=C(Cc1ccc(Oc2ccc(F)cc2)cc1)N1CC(NC2Cc3ccc(F)cc3C2)C1` (centres unmarked) [Example 50, 1-[3-(5-Fluoro-indan-2-ylamino)-azetidin-1-yl]-2-[4-(4-fluoro-phenoxy)-phenyl]-ethanone], the IC50 is 780 nM. For the molecule `C=CCOc1ccccc1CNC1CN(C(=O)Nc2ccc(OCc3ccccc3)cc2)C1` [Example 51, 3-(2-Allyloxy-benzylamino)-azetidine-1-carboxylic acid (4-benzyloxy-phenyl)-amide], the IC50 worked out at 340 nM. Next, `O=C(Nc1ccc(OCc2ccccc2)cc1)N1CC(NCc2c(F)cccc2F)C1` [Example 52, 3-(2,6-Difluoro-benzylamino)-azetidine-1-carboxylic acid (4-benzyloxy-phenyl)-amide]: 870 nM; `COC(=O)C(NC1CN(C(=O)Nc2ccc(Oc3ccccc3)cc2)C1)c1ccccc1` (centres unmarked) [Example 53, [1-(4-Phenoxy-phenylcarbamoyl)-azetidin-3-ylamino]-phenyl-acetic acid methyl ester]: 2230 nM. With `COc1ccc(C(C)NC2CN(C(=O)Nc3ccc(Oc4ccccc4)cc3)C2)cc1` (centres unmarked) [Example 54, 3-[1-(4-Methoxy-phenyl)-ethylamino]-azetidine-1-carboxylic acid (4-phenoxy-phenyl)-amide], the IC50 was 420 nM. Then `NC(=O)C(NC1CN(C(=O)Nc2ccc(Oc3ccccc3)cc2)C1)c1ccccc1` (centres unmarked) [Example 55, 3-[(Carbamoyl-phenyl-methyl)-amino]-azetidine-1-carboxylic acid (4-phenoxy-phenyl)-amide], with 7710 nM; and `CC(NC1CN(C(=O)Nc2ccc(C(F)(F)F)cc2)C1)c1ccc(F)cc1` (centres unmarked) [Example 56, 3-[1-(4-Fluoro-phenyl)-ethylamino]-azetidine-1-carboxylic acid (4-trifluoromethyl-phenyl)-amide], with 3280 nM; and `CC(NC1CN(C(=O)Nc2ccc(Oc3ccccc3)cc2)C1)c1ccc(F)cc1Cl` (centres unmarked) [Example 57, 3-[1-(2-Chloro-4-fluoro-phenyl)-ethylamino]-azetidine-1-carboxylic acid (4-phenoxy-phenyl)-amide], with 1220 nM.

In the case of `CC(NC1CN(C(=O)Nc2cccc(Oc3ccccc3)c2)C1)c1ccc(F)cc1Cl` (centres unmarked) [Example 58, 3-[1-(2-Chloro-4-fluoro-phenyl)-ethylamino]-azetidine-1-carboxylic acid (3-phenoxy-phenyl)-amide], the IC50 turned out to be 1120 nM. Then `CC(c1ccc(F)cc1Cl)N(C)C1CN(C(=O)Nc2ccc(C(F)(F)F)cc2)C1` (centres unmarked) [Example 59, 3-{[1-(2-Chloro-4-fluoro-phenyl)-ethyl]-methyl-amino}-azetidine-1-carboxylic acid (4-trifluoromethyl-phenyl)-amide], with 1870 nM; and `CC(c1ccc(F)cc1Cl)N(C)C1CN(C(=O)Nc2ccc(Oc3ccccc3)cc2)C1` (centres unmarked) [Example 60, 3-{[1-(2-Chloro-4-fluoro-phenyl)-ethyl]-methyl-amino}-azetidine-1-carboxylic acid (4-phenoxy-phenyl)-amide], with 570 nM. Then `Cc1ccccc1C(C)NC1CN(C(=O)Nc2ccc(Oc3ccccc3)cc2)C1` (centres unmarked) [Example 61, 3-(1-o-Tolyl-ethylamino)-azetidine-1-carboxylic acid (4-phenoxy-phenyl)-amide], with 750 nM.
